Experimental findings from ChEMBL document CHEMBL1147387, “A cytotoxic beta-carboline from the bryozoan Catenicella cribraria” (1993) are described below.

The nature of this test: Cytotoxicity against human NCI60 cells. Format: functional.

Usually GI50 stands for the concentration at which growth is held to half of that of the control. A high value points to lower sensitivity of the cells. A word on the TGI: it is the concentration giving total growth inhibition. A higher TGI goes with lower sensitivity of the cells. `C=Cc1nccc2c1[nH]c1c(O)cccc12` gave a GI50 of 1.8 µM and a TGI of 5.8 µM. In addition, the CC50 (read-out: LC50 (the source's name)) stood at 19 µM.
